In publication PMC9503608, “An Insight into Symmetrical Cyanine Dyes as Promising Selective Antiproliferative Agents in Caco-2 Colorectal Cancer Cells” (Molecules, 2022):

Tests used:
[1] = MTT cell viability assay, NHDF; format: cell-based, human; details: human, normal human dermal fibroblasts (NHDF), single concentration of 10 µM, 72 h, mean ± SD; read-out: cell viability percentage in relation with control, NHDF
Experimental: (§1) Caco-2, MCF-7, PC-3, and NHDF cell lines were obtained from the American Type Culture Collection (ATCC) and maintained in 75 cm^2 culture flasks in a humidified atmosphere at 37 °C with 5% carbon dioxide using a LEEC Culture Safe Precision CO2 Incubator. The culture media was renewed every two to three days. The NHDF cell line was cultured in Roswell Park Memorial Institute (RPMI) medium supplemented with 10% of inactivated fetal bovine serum (FBS), 2 mM of L-glutamine, 10 mM of 4-(2-hydroxyethyl)-1-piperazineethanesulfonic acid (HEPES), 1 mM of sodium pyruvate, and 1% of antibiotic/antimycotic mixture (Ab; 10,000 U/mL of penicillin G, […] of streptomycin, and 25 µg/mL of amphotericin B). The PC-3 cell line was also cultured in RPMI 1640 medium supplemented with 10% inactivated FBS and 1% of an antibiotic mixture (Sp; 10,000 U/mL of penicillin G and […] of streptomycin). The Caco-2 and MCF-7 cell lines were grown in Dulbecco’s Modified Eagle Medium (DMEM). Caco-2 was supplemented with 20% of inactivated FBS and 1% of Sp. On the other hand, the MCF-7 medium was complemented with 10% of inactivated FBS and 1% of Ab. All manipulations were performed in a Labculture Class II A2 Biological Safety Cabinet.
(§2) After the near confluency of cultures, cells were detached with a solution of 0.125 g/L trypsin and 0.02 g/L ethylenediaminetetracetic acid (EDTA), counted using the trypan blue method, resuspended, and seeded in 96-well culture plates (100 µL, 2 × 10^4 cells/mL). Following 48 h of adherence, cells were treated with the test solutions and incubated for 72 h. This incubation, as well as the solution manipulations, were performed in an environment protected from light. After the incubation, the medium was replaced with a fresh incomplete culture medium (without FBS and Ab or Sp) and MTT solution (5 mg/mL in phosphate buffer saline (PBS)). After additional incubation for 4 h, the MTT medium was removed, formazan crystals were dissolved in DMSO, and the optical density of each well was measured at 570 nm using a microplate spectrophotometer Bio-Rad xMark. Untreated cells were used as a negative control and 5-FU as the positive control. The results were expressed as the relative cell proliferation relative to the negative control cells. […] To determine the IC50 values, Caco-2, MCF-7, PC-3, and NHDF cells were exposed to increasing concentrations between 0.001 and 100 μM.

[2] = tested on: normal human dermal fibroblasts (NHDF); test: MTT cell viability assay, NHDF; format: cell-based; details: Homo sapiens, NHDF, 72 h, 72 h of incubation, MTT, protected from light
Experimental: as §1, §2

[3] = tested on: MCF-7 breast adenocarcinoma cell line; test: MTT cell viability assay, MCF-7; format: cell-based, human; details: Homo sapiens
Experimental: as §1, §2

[4] = tested on: NHDF cell line; test: Photocytotoxicity evaluation (MTT after white LED light irradiation); format: cell-based, human; details: 30 min white LED light versus dark
Experimental: The photocytotoxicity evaluation was performed on the NHDF cell line similar to the above MTT cell viability assay. In contrast to 72 h continuous incubation in the dark with test solutions, cells were subjected to 30 min of constant irradiation with white light from an RGBW LED projector (220–240 V and 30 W, Luxtar) after 48 h of incubation. This light source emits radiation at wavelengths suitable for the excitation of evaluated dye (see support information) with a total fluence rate of 1.196 W/sr·m^2 (measured with a pr-650 spectrascan spectroradiometer, Photo Research Inc., Chatsworth, CA, USA). During the photocytotoxicity treatment, the device was placed over the culture cell plates supported by a closed system at a distance of 12 cm. The maximum temperature of the exposure of the cells was 37 °C. After this irradiation, cells were incubated for an additional 24 h, making up a total of 72 h incubation and exposure to the test solutions. To check the validity of the light source, the squaraine dye 4, which was previously described with relevant photodynamic activity, was used as a positive control. A photocytotoxicity assay was performed in quadruplicate, and at least two independent assays were achieved.

[5] = Photostability evaluation in PBS (absorbance decay at 376 nm); format: physicochemical; details: 10 µM in PBS
Experimental: The photostability of the dye 12 was evaluated using a concentration of 10 µM prepared from the dilution of 10 mM DMSO stock solution in PBS. In a 96-well plate, 100 µL of dye solution was added, irradiated in the same way as that previously described for photocytotoxicity evaluation for 120 min, and spectrophotometric readings were taken over this period at the dye 12’s maximum absorption wavelength (376 nm). Two independent experiments were performed in quadruplicate. The absorbance was normalised to simplify the analysis.

[6] = tested on: Caco-2 cells; test: Apoptosis by propidium iodide staining and flow cytometry; format: cell-based, human
Experimental: The apoptosis occurrence and influence of the dye 12 on the cell cycle were evaluated using propidium iodide (PI) staining and flow cytometry, as described by Riccardi and Nicolleti. After the near confluency of the culture, trypsinisation, and counting, Caco-2 cells were seeded (2 mL, 3 × 10^4 cells/mL) in 6-well plates. After 48 h of adherence, the cells were treated with the test solutions (3 mL and 5 mL for negative control) and incubated for 72 h. Untreated cells were used as the negative control, and sorbitol and 5-FU [56] were used as positive controls for the apoptosis and cell cycle distribution studies, respectively. After incubation, the supernatant was collected and the cells were washed with PBS and combined with the cells harvested using the trypsin treatment. This cell suspension was maintained on ice and centrifugated, and then the pellet was resuspended in 0.5 mL of PBS. The cells were fixed by adding 4.5 mL of 70% ethanol cooled at −20 °C and were stored at the same temperature. For the cytometry analysis, PBS was added to the fixed cells before centrifugation, and then the ethanolic supernatant was removed. The pellet was resuspended in 0.5 mL of PBS and 0.5 mL of DNA extraction (192 mL of 0.2 M sodium phosphate and 8 mL of […], pH 7.8) was added. After incubation for 5 min, the cells were centrifuged, the supernatant was removed, and the pellet resuspended in 0.3 mL of staining solution (20 µg/mL of PI and 0.2 mg/mL of DNase-free RNase in PBS). Using a FACSCalibur flow cytometer and the 488 nm laser line, a minimum of 20,000 events were recorded. Acquisition and apoptosis analysis was performed using BD CellQuestTM Pro 4.0.2 Software. Cell cycle analysis was performed with ModFit LT 5.0.9 software. To exclude debris and necrotic cells, events with a lower diameter (forward scatter; FCS) and reduced PI fluorescence (FL3) than the hypodiploid apoptotic cells were eliminated. Two independent experiments were performed.

CN1C(=Cc2oc3ccccc3[n+]2C)Oc2ccccc21.Cc1ccc(S(=O)(=O)[O-])cc1 [Dye 12, 3-Methyl-2-((3-methylbenzo[d]oxazol-2(3H)-ylidene)methyl)benzo[d]oxazol-3-ium 4-methylbenzenesulfonate]
viability at 72 h, 10 µM [1]: 41 ± 0.82% | IC50 [2]: 14 µM | viability at 10 µM ([3]; MCF7, 72 h, single concentration of 10 µM, 72 h, mean ± SD, read-out: cell viability percentage in relation with control, MCF-7): 10.8 ± 1.98% | IC50 ([3]; MCF7, 72 h of incubation, MTT, protected from light): 4.57 µM | photocytotoxicity (irradiation influence on cytotoxicity) [4]: total absence of photocytotoxicity | decomposition (decrease in absorbance at 376 nm) ([5]; after 30 min of irradiation): approximately 4% | decomposition (decrease in absorbance at 376 nm) ([5]; after 120 min of irradiation): ~5% | increase in apoptotic cells relative to untreated cells ([6]; Caco-2, 10 µM, 72 h): 2% | apoptosis induced (percent of cells) ([6]; Caco-2, dye 12 10 µM 72 h, sorbitol 600 mM 24 h): about 3%
